Target: T1, angiotensin II receptor (Oryctolagus cuniculus, UniProt P34976)
T1 construct: The aorta was cut into 3~4 mm to form ring samples; from tissue; host or cells: isolated aorta rings of New Zealand White rabbits
T1 sequence (P34976 1-359): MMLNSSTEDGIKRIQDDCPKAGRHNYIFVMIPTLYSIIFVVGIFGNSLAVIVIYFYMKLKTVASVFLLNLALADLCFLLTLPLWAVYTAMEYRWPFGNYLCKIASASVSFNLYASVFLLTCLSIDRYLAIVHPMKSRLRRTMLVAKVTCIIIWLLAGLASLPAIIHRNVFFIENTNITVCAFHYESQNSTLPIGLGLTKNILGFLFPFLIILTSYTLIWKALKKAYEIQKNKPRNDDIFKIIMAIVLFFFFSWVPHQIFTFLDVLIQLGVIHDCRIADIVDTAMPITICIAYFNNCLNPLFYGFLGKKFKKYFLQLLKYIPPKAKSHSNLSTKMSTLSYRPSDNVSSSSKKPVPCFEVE
Assay: inhibition of angiotensin II induced contraction of isolated rabbit aorta rings
Assay type: cell-based, New Zealand White rabbit
Settings: test compound incubated 20 minutes, 37° C., pH 7.4, read-out: IC50 (concentration being required to inhibit angiotensin II induced contraction by 50%)
In short: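 Rabbit aortic rings in Krebs-Henseleit, 37 °C, pH 7.4, 2 g tension, contracted with Angiotensin II […] three times, the third serving as control. Compound incubated 20 min before rechallenge; IC50 is concentration inhibiting Angiotensin II contraction by 50%.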

With `CCCCc1nc(C)c(CCC(=O)N2CCC(C(=O)OCC)CC2)c(=O)n1Cc1ccc(-c2ccccc2-c2nn[nH]n2)cc1` [Compound 66, 2-n-butyl-5-[2'-(4"-ethoxycarbonylpiperidino)carbonylethyl]-6-methyl-3-[[2'-(1H-tetrazol-5-yl)biphenyl-4-yl]methyl]-pyrimidin-4-(3H)-one] as the compound, how does the IC50 read?
The IC50 was 9.7 nM.

For `CCc1nc(=O)c(CC(=O)O)c(C)n1Cc1ccc(-c2ccccc2-c2nnn[nH]2)cc1` [Compound 3, 2-ethyl-5-carboxymethyl-6-methyl-1-[[2'-(1H-tetrazol-5-yl)-biphenyl-4-yl]methyl]-pyrimidin-4-(1H)-one], which IC50 is on record?
Its IC50 is 22.3 nM.

With `CCc1nc(C)c(CCC(=O)O)c(=O)n1Cc1ccc(-c2ccccc2-c2nnn[nH]2)cc1` [Compound 6, 2-ethyl-5-(2'-carboxyethyl)-6-methyl-3-[[2'-(1H-tetrazol-5-yl)-biphenyl-4-yl]methyl]-pyrimidin-4-(3H)-one] as the compound, how does the IC50 read?
Its IC50 is 22.7 nM.

For `CCCCc1nc(C)c(CCC(=O)N2CC=CC2)c(=O)n1Cc1ccc(-c2ccccc2-c2nn[nH]n2)cc1` [Compound 61, 2-n-butyl-5-[2'-(3"-pyrrolino)carbonylethyl]-6-methyl-3-[[2'-(1H-tetrazol-5-yl)biphenyl-4-yl]methyl]-pyrimidin-4-(3H)-one], which IC50 is on record?
The IC50 was 7.85 nM.

For `CCCCc1nc(C)c(CC(=O)N2CCN(C(C)=O)CC2)c(=O)n1Cc1ccc(-c2ccccc2-c2nn[nH]n2)cc1` [Compound 77, 2-n-butyl-5-(4'-acetylpiperazinocarbonylmethyl)-6-methyl-3-[[2'-(1H-tetrazol-5-yl)biphenyl-4-yl]methyl]-pyrimidin-4-(3H)-one], which IC50 is on record?
The IC50 was 2.17 nM.

With `CCCc1nc(C)c(CC(=O)OCC)c(=O)n1Cc1ccc(-c2ccccc2-c2nnn[nH]2)cc1` [Compound 9, 2-n-propyl-5-ethoxycarbonylmethyl-6-methyl-3-[[2'-(1H-tetrazol-5-yl)biphenyl-4-yl]methyl]-pyrimidin-4-(3H)-one] as the compound, how does the IC50 read?
Its IC50 is 4.35 nM.

Which IC50 does the source give for `CCCCc1nc(C)c(CC(=O)N2CCC[C@H]2C(N)=O)c(=O)n1Cc1ccc(-c2ccccc2-c2nn[nH]n2)cc1` [Compound 43, 2-n-butyl-5-[(S)-2'-aminocarbonylpyrrolidinocarbonylmethyl]-6-methyl-3-[[2'-(1H-tetrazol-5-yl)biphenyl-4-yl]methyl]-pyrimidin-4-(3H)-one] here?
Its IC50 is 2.08 nM.

With `CCCc1nc(C)c(CCC(=O)O)c(=O)n1Cc1ccc(-c2ccccc2-c2nnn[nH]2)cc1` [Compound 14, 2-n-propyl-5-(2'-carboxyethyl)-6-methyl-3-[[2'-(1H-tetrazol-5-yl)-biphenyl-4-yl]methyl]-pyrimidin-4-(3H)-one] as the compound, how does the IC50 read?
Its IC50 is 7.39 nM.

Same assay, conditions: test compound incubated 20 minutes, value given in M, read-out: IC50 (concentration being required to inhibit angiotensin II induced contraction by 50%)

How did the IC50 turn out when `CCCCc1nc(C)c(CC(=O)N2CCC(C)CC2)c(=O)n1Cc1ccc(-c2ccccc2-c2nn[nH]n2)cc1` [Compound 48, 2-n-butyl-5-(4'-methylpiperidinocarbonylmethyl)-6-methyl-3-[[2'-(1H-tetrazol-5-yl)biphenyl-4-yl]methyl]-pyrimidin-4-(3H)-one] was run?
Its IC50 is over 10000 nM.
